Patent publication US9708314B2, “Heterocyclic amide compound” (NISSAN CHEMICAL INDUSTRIES, LTD., priority 2013, dated 2017)

Legend:
Type in all cases: in vivo
[1] = tested on: transplanted Oryza sativa; assay: Test Example 1: effect on crop, application before weed generation in submerged conditions; conditions: Application herbicide amount 320 g/ha; Seventeenth Table
In short: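 Submerged pot test: alluvial soil, 4 cm water, seeds sown mixed, 2.5-leaf rice transplanted; emulsion in water applied to surface day of sowing, dose g/ha; greenhouse 25–30° C.; 3 wk; 0–5 rating.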

[2] = tested on: Abutilon theophrasti; assay: Test Example 4: herbicidal effect by application to foliage (diluvial soil, plastic box); conditions: for M (Abutilon theophrasti) herbicidal effect grade: Application herbicide amount 320 g/ha, foliage application
In short: (§1)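 Read-out is a 0–5 visual grade of herbicidal ratio (5: ≥90%, almost withered; 0: ≤5%) taken three weeks after treatment. Compound was applied as a diluted emulsion to stem and leaf parts of 14-day greenhouse-grown plants (25° C. to 30° C.) at rates expressed as g/ha.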

[3] = tested on: Alopecurus myosuroides; assay: as above; conditions: for J (Alopecurus myosuroides) herbicidal effect grade: Application herbicide amount 320 g/ha, foliage application
In short: as §1

[4] = tested on: Amaranthus retroflexus; assay: as above; conditions: for N (Amaranthus retroflexus) herbicidal effect grade: Application herbicide amount 320 g/ha, foliage application
In short: as §1

[5] = tested on: Apera spica-venti.; assay: as above; conditions: for L (Apera spica-venti.) herbicidal effect grade: Application herbicide amount 320 g/ha, foliage application
In short: as §1

[6] = tested on: Avena fatua; assay: as above; conditions: for I (Avena fatua) herbicidal effect grade: Application herbicide amount 320 g/ha, foliage application
In short: as §1

[7] = tested on: Chenopodium album; assay: as above; conditions: for O (Chenopodium album) herbicidal effect grade: Application herbicide amount 320 g/ha, foliage application
In short: as §1

[8] = tested on: Digitaria ciliaris; assay: as above; conditions: for F (Digitaria ciliaris) herbicidal effect grade: Application herbicide amount 320 g/ha, foliage application
In short: as §1

[9] = tested on: Echinochloa crus-galli var. crus-galli; assay: as above; conditions: for H (Echinochloa crus-galli var. crus-galli) herbicidal effect grade: Application herbicide amount 320 g/ha, foliage application
In short: as §1

[10] = tested on: Galium spurium; assay: as above; conditions: for Q (Galium spurium) herbicidal effect grade: Application herbicide amount 320 g/ha, foliage application
In short: as §1

[11] = tested on: Lolium multiflorum Lam.; assay: as above; conditions: for K (Lolium multiflorum Lam.) herbicidal effect grade: Application herbicide amount 320 g/ha, foliage application
In short: as §1

[12] = tested on: Setaria viridis; assay: as above; conditions: for G (Setaria viridis) herbicidal effect grade: Application herbicide amount 320 g/ha, foliage application
In short: as §1

[13] = tested on: Stellaria media; assay: as above; conditions: for P (Stellaria media) herbicidal effect grade: Application herbicide amount 320 g/ha, foliage application
In short: as §1

[14] = tested on: Veronica persica; assay: as above; conditions: for R (Veronica persica) herbicidal effect grade: Application herbicide amount 320 g/ha, foliage application
In short: as §1

[15] = tested on: Beta vulgaris ssp. vulgaris; assay: Test Example 4: effect on crop by application to foliage (diluvial soil, plastic box); conditions: for f (Beta vulgaris ssp. vulgaris) effect on crop grade: Application herbicide amount 320 g/ha, foliage application
In short: as §1

[16] = tested on: Brassica campestris L.; assay: as above; conditions: for g (Brassica campestris L.) effect on crop grade: Application herbicide amount 320 g/ha, foliage application
In short: as §1

[17] = tested on: Glycine max; assay: as above; conditions: for d (Glycine max) effect on crop grade: Application herbicide amount 320 g/ha, foliage application
In short: as §1

[18] = tested on: Triticum aestivum; assay: as above; conditions: for e (Triticum aestivum) effect on crop grade: Application herbicide amount 320 g/ha, foliage application
In short: as §1

[19] = tested on: Zea mays; assay: as above; conditions: for c (Zea mays) effect on crop grade: Application herbicide amount 320 g/ha, foliage application
In short: as §1

[20] = tested on: directly sowed Oryza sativa; assay: as above; conditions: for b (directly sowed Oryza sativa) effect on crop grade: Application herbicide amount 320 g/ha, foliage application
In short: as §1

[21] = application to foliage, application herbicide amount 320 g/ha

| SMILES | a: transplanted Oryza sativa (effect on crop grade) [1] | M (Abutilon theophrasti) herbicidal effect grade [2] | J (Alopecurus myosuroides) herbicidal effect grade [3] | N (Amaranthus retroflexus) herbicidal effect grade [4] | L (Apera spica-venti.) herbicidal effect grade [5] | I (Avena fatua) herbicidal effect grade [6] | O (Chenopodium album) herbicidal effect grade [7] | F (Digitaria ciliaris) herbicidal effect grade [8] | H (Echinochloa crus-galli var. crus-galli) herbicidal effect grade [9] | Q (Galium spurium) herbicidal effect grade [10] | K (Lolium multiflorum Lam.) herbicidal effect grade [11] | G (Setaria viridis) herbicidal effect grade [12] | P (Stellaria media) herbicidal effect grade [13] | R (Veronica persica) herbicidal effect grade [14] | f (Beta vulgaris ssp. vulgaris) effect on crop grade [15] | g (Brassica campestris L.) effect on crop grade [16] | d (Glycine max) effect on crop grade [17] | e (Triticum aestivum) effect on crop grade [18] | c (Zea mays) effect on crop grade [19] | b (directly sowed Oryza sativa) effect on crop grade [20] | also measured |
| --- | --- | --- | --- | --- | --- | --- | --- | --- | --- | --- | --- | --- | --- | --- | --- | --- | --- | --- | --- | --- | --- |
| COc1ccc(Cc2nnc3c(C(=O)Nc4nnco4)ccc(C(F)(F)F)n23)cc1 [1-151] | 0 (Herbicidal ratio of 5% or less (almost no effect)) | 3 (Herbicidal ratio of 40% or more and less than 70%) | 1 (Herbicidal ratio of 5% or more and less than 20%) | 5 (Herbicidal ratio of 90% or more (almost completely withered)) | 2 (Herbicidal ratio of 20% or more and less than 40%) | 3 (Herbicidal ratio of 40% or more and less than 70%) | 5 (Herbicidal ratio of 90% or more (almost completely withered)) | 5 (Herbicidal ratio of 90% or more (almost completely withered)) | 5 (Herbicidal ratio of 90% or more (almost completely withered)) | 4 (Herbicidal ratio of 70% or more and less than 90%) | 3 (Herbicidal ratio of 40% or more and less than 70%) | 3 (Herbicidal ratio of 40% or more and less than 70%) | 5 (Herbicidal ratio of 90% or more (almost completely withered)) | 5 (Herbicidal ratio of 90% or more (almost completely withered)) | 5 (Herbicidal ratio of 90% or more (almost completely withered)) | 5 (Herbicidal ratio of 90% or more (almost completely withered)) | 4 (Herbicidal ratio of 70% or more and less than 90%) | 3 (Herbicidal ratio of 40% or more and less than 70%) | 0 (Herbicidal ratio of 5% or less (almost no effect)) | 0 (Herbicidal ratio of 5% or less (almost no effect)) | – |
| C#CCN(C)c1nnc2c(C(=O)Nc3nnc(C)o3)ccc(C(F)(F)F)n12 [1-152] | 2 (Herbicidal ratio of 20% or more and less than 40%) | 3 (Herbicidal ratio of 40% or more and less than 70%) | 0 (Herbicidal ratio of 5% or less (almost no effect)) | 4 (Herbicidal ratio of 70% or more and less than 90%) | 1 (Herbicidal ratio of 5% or more and less than 20%) | 2 (Herbicidal ratio of 20% or more and less than 40%) | 5 (Herbicidal ratio of 90% or more (almost completely withered)) | 4 (Herbicidal ratio of 70% or more and less than 90%) | 4 (Herbicidal ratio of 70% or more and less than 90%) | 1 (Herbicidal ratio of 5% or more and less than 20%) | 1 (Herbicidal ratio of 5% or more and less than 20%) | 3 (Herbicidal ratio of 40% or more and less than 70%) | 4 (Herbicidal ratio of 70% or more and less than 90%) | 3 (Herbicidal ratio of 40% or more and less than 70%) | 4 (Herbicidal ratio of 70% or more and less than 90%) | 1 (Herbicidal ratio of 5% or more and less than 20%) | 3 (Herbicidal ratio of 40% or more and less than 70%) | 0 (Herbicidal ratio of 5% or less (almost no effect)) | 0 (Herbicidal ratio of 5% or less (almost no effect)) | 0 (Herbicidal ratio of 5% or less (almost no effect)) | – |
| Cc1nnc(NC(=O)c2ccc(C(F)(F)F)n3c(N(C)CCC#N)nnc23)o1 [1-153] | 2 (Herbicidal ratio of 20% or more and less than 40%) | 3 (Herbicidal ratio of 40% or more and less than 70%) | 1 (Herbicidal ratio of 5% or more and less than 20%) | 4 (Herbicidal ratio of 70% or more and less than 90%) | 2 (Herbicidal ratio of 20% or more and less than 40%) | 3 (Herbicidal ratio of 40% or more and less than 70%) | 5 (Herbicidal ratio of 90% or more (almost completely withered)) | 4 (Herbicidal ratio of 70% or more and less than 90%) | 5 (Herbicidal ratio of 90% or more (almost completely withered)) | 4 (Herbicidal ratio of 70% or more and less than 90%) | 1 (Herbicidal ratio of 5% or more and less than 20%) | 4 (Herbicidal ratio of 70% or more and less than 90%) | 5 (Herbicidal ratio of 90% or more (almost completely withered)) | 4 (Herbicidal ratio of 70% or more and less than 90%) | 5 (Herbicidal ratio of 90% or more (almost completely withered)) | 3 (Herbicidal ratio of 40% or more and less than 70%) | 5 (Herbicidal ratio of 90% or more (almost completely withered)) | 2 (Herbicidal ratio of 20% or more and less than 40%) | 0 (Herbicidal ratio of 5% or less (almost no effect)) | 3 (Herbicidal ratio of 40% or more and less than 70%) | – |
| COc1ccc(N(C)c2nnc3c(C(=O)Nc4nnc(C)o4)ccc(C(F)(F)F)n23)cc1 [1-165] | 0 (Herbicidal ratio of 5% or less (almost no effect)) | – | – | – | – | – | – | – | – | – | – | – | – | – | – | – | – | – | – | – | M: herbicidal effect on Abutilon theophrasti [2, 21]: 3 (Herbicidal ratio of 40% or more and less than 70%); J: herbicidal effect on Alopecurus myosuroides [3, 21]: 0 (Herbicidal ratio of 5% or less (almost no effect)); N: herbicidal effect on Amaranthus retroflexus [4, 21]: 4 (Herbicidal ratio of 70% or more and less than 90%); L: herbicidal effect on Apera spica-venti. [5, 21]: 2 (Herbicidal ratio of 20% or more and less than 40%); I: herbicidal effect on Avena fatua [6, 21]: 0 (Herbicidal ratio of 5% or less (almost no effect)); O: herbicidal effect on Chenopodium album [7, 21]: 5 (Herbicidal ratio of 90% or more (almost completely withered)); F: herbicidal effect on Digitaria ciliaris [8, 21]: 3 (Herbicidal ratio of 40% or more and less than 70%); H: herbicidal effect on Echinochloa crus-galli var. crus-galli [9, 21]: 4 (Herbicidal ratio of 70% or more and less than 90%); Q: herbicidal effect on Galium spurium [10, 21]: 2 (Herbicidal ratio of 20% or more and less than 40%); K: herbicidal effect on Lolium multiflorum Lam. [11, 21]: 0 (Herbicidal ratio of 5% or less (almost no effect)); G: herbicidal effect on Setaria viridis [12, 21]: 1 (Herbicidal ratio of 5% or more and less than 20%); P: herbicidal effect on Stellaria media [13, 21]: 4 (Herbicidal ratio of 70% or more and less than 90%); R: herbicidal effect on Veronica persica [14, 21]: 4 (Herbicidal ratio of 70% or more and less than 90%); f: effect on crop, Beta vulgaris ssp. vulgaris [15, 21]: 5 (Herbicidal ratio of 90% or more (almost completely withered)); g: effect on crop, Brassica campestris L. [16, 21]: 4 (Herbicidal ratio of 70% or more and less than 90%); d: effect on crop, Glycine max [17, 21]: 1 (Herbicidal ratio of 5% or more and less than 20%); e: effect on crop, Triticum aestivum [18, 21]: 0 (Herbicidal ratio of 5% or less (almost no effect)); c: effect on crop, Zea mays [19, 21]: 0 (Herbicidal ratio of 5% or less (almost no effect)); b: effect on crop, directly sowed Oryza sativa [20, 21]: 0 (Herbicidal ratio of 5% or less (almost no effect)) |
